Peptide text beside a SMILES is read from it.

The compound `Nc1ccc(C(=O)Oc2ccc(F)cc2)c(O)c1` came in with a logP of 3.27.
To `CC(=O)Nc1c(I)c(C(=O)N[C@H]2C(O)O[C@H](CO)[C@@H](O)[C@@H]2O)c(I)c(N(C)C(C)=O)c1I` (some centres undefined) belongs -1.89.
`NCCCc1ccncc1` gave a logP of 0.4.
`CN(C)C(=O)Nc1cccc(C(F)(F)F)c1`: the logP amounted to 2.42.
To `CBr` belongs 1.19; to `CN(CC(F)(F)F)N=Nc1ccc(C(N)=O)cc1`, 1.86; to `O=NN1CCCCC1`, 0.36.
The value for `O=c1[nH]c(=O)c2[nH]cnc2[nH]1` was -0.73.
`COC(=O)c1ccccc1OC(C)=O` came in with a logP of 1.46.
To `NNC(=O)c1ccccc1` belongs 0.19; to `O=C(CO)NCc1ccccc1`, 0.55; to `Nc1nc(N)nc(-c2cccc(SC(F)(F)F)c2)n1`, 3.2.
The value for `OCCN1CCN(CCCN2c3ccccc3Sc3ccc(C(F)(F)F)cc32)CC1` was 4.36; that for `c1ccc(-c2ccncn2)cc1` was 1.92.
To `ClC1C=CC(Cl)C(Cl)C1Cl` (centres undefined) belongs 3.08.
For the compound `CCOc1ccccc1O`, the logP came out at 1.68.
The value for `CC1CO1` (centres undefined) was 0.03; that for `O=C(NP(=O)(N1CC1)N1CC1)c1ccc(I)cc1` was 2.25.
To `FC(Cl)Cl` belongs 1.55; to `Cc1cccc(C)c1O`, 2.36; to `CC(C)Nc1nc(Cl)nc(NC(C)C)n1`, 2.93.
As to `C=C(C)C`, the logP stood at 2.34.
To `Clc1cc(Cl)nc(Cl)c1` belongs 2.68; to `O=C1CN=C(c2ccccc2)c2cc(F)ccc2N1`, 2.32; to `CCC(C)C(NC(=O)C(CC(N)=O)NC(C)=O)C(N)=O` (stereo not drawn) (Ac-Asn-Ile-NH2; configuration not given here), -1.43.
To `Brc1ccc(-c2ccc(Br)cc2)cc1` belongs 5.72; to `NCCCc1ccccc1`, 1.83.
The value for `CCCCCBr` was 3.37; that for `CCC1C2CC3C4N(C)c5ccccc5C45CC(C2C5O)N3C1O` (centres undefined) was 1.81; that for `CNC(=O)Oc1ccccc1C#N` was 0.86.
In the case of `CNC(=O)Oc1cccc(C=O)c1`, the logP turned out to be 0.92.
To `S=C=NCCc1ccccc1` belongs 3.47.
To `Cc1ccccc1Cl` belongs 3.42; to `CN(C)CCN(C)C`, 0.3; to `CC(=O)Nc1cn[nH]c1`, -0.38.
The compound `O=C(CNC(=O)c1ccccc1)Oc1ccccc1` yielded a logP of 2.31.
The value for `CC(C)(C)c1cc(O)ccc1[N+](=O)[O-]` was 3.65; that for `O=C(COc1ccccc1)N1CCOCC1` was 0.74; that for `CC(=O)Oc1ccccc1` was 1.49.
To `N#CCc1ccco1` belongs 0.85; to `Clc1cccs1`, 2.54; to `COc1ccc(O)c2nccc(C)c12`, 2.75.
The value for `CON(C)C(=O)Nc1ccc(Br)c(Cl)c1` was 3.09; that for `CC(=O)Nc1ncccn1` was -0.75; that for `c1ccc2c(c1)OCCO2` was 2.01.
Take `Cn1c([N+](=O)[O-])cnc1-c1ccc(C(N)=O)cc1`: the logP came out at 0.98.
`CCOC(=O)C(=Cc1cccc(F)c1)C(C)=O` gave a logP of 2.46.
The value for `O=C(c1ccccc1)n1c(=O)[nH]cc(F)c1=O` was 0.8; that for `CC(C)c1ccccc1N` was 2.12; that for `O=C(NC(CO)C(O)c1ccc([N+](=O)[O-])cc1)C(Br)(Br)Br` (centres undefined) was 2.17.
The value for `Cc1cccc2cccnc12` was 2.6; that for `NCC(=O)NCC(=O)O` was -2.92.
To `Oc1ccccc1-c1ccccc1` belongs 3.09; to `N#Cc1ccc(C(=O)O)cc1`, 1.56.
`CCCCNc1nc(NC(C)C)nc(SC(F)F)n1` displayed a logP of 4.75.
To `O=C(Nc1ccccc1)C1CNCCN1` (centres undefined) belongs 0.48; to `O=C(CN1CCCCC1)Nc1ccccc1Br`, 2.94.
To `COc1ccc(I)cc1Cc1cnc(N)nc1N` belongs 2.7.
As to `CC(=O)Oc1cccc2ccccc12`, the logP was determined as 2.78.
`CC(C)N` displayed a logP of 0.26.
The value for `O=c1cncc[nH]1` was -1.49; that for `CC(=O)CC(=O)C(C)(C)C` was 1.67; that for `CC(C)COC(N)=O` was 0.65.
The value for `CN(C)C(N(C)C)=S(I)c1cc(Cl)c(Cl)c(Cl)c1` (centres undefined) was 0.74; that for `O=[N+]([O-])c1cc[n+]([O-])cc1` was -0.55.
To `O=C(O)CCc1ccccc1` belongs 1.84.
On to `Nc1ccc2ncccc2c1`, for which the logP was 1.28.
To `NCCCCNC(=O)c1ccccc1` belongs 0.58.
For `Cn1c([N+](=O)[O-])cnc1-c1nc2ccccc2n1CCCN1CCOCC1`, the logP turned out to be 1.8.
To `COCCO` belongs -0.77.
To `FS(F)(F)(F)(F)c1ccccc1` belongs 3.36.
To `Cc1ccc(NC(=O)N(C)C)cc1Cl` belongs 2.41; to `COC1=CC(=O)C[C@@H](C)[C@]12Oc1c(Cl)c(OC)cc(OC)c1C2=O`, 2.18.
Take `C[C@]12CCC(=O)C=C1CC[C@@H]1[C@@H]2[C@@H](O)C[C@@]2(C)[C@H]1CC[C@]2(O)C(=O)CO`: the logP worked out at 1.61.
The value for `O=[N+]([O-])Cc1ccccc1` was 1.75; that for `CCOC(=O)CCl` was 0.94.
`CCOc1cccnc1`: the logP stood at 1.44.
The value for `CCCC(=NOCC)C1C(=O)CC(C)(C)OC1=O` (centres undefined) was 2.56.
The value for `CCOC(N)=O` was -0.15; that for `NNC(=O)c1cccc(I)c1` was 1.53.
To `O=C(O)COc1cccc(F)c1` belongs 1.48; to `CC(C)Oc1cc(-n2nc(C(C)(C)C)oc2=O)c(Cl)cc1Cl`, 4.8; to `CCC(=O)OC(Cc1ccccc1)(c1ccccc1)C(C)CN(C)C` (centres undefined), 4.18.
The compound `NC(=O)C1(N2CCCCC2)CCN(CCCC(=O)c2ccc(F)cc2)CC1` returned a logP of 2.02.
The value for `CN(C)C(=O)c1ccccc1` was 0.62; that for `O=c1cc[nH]c2cc(C(F)(F)F)ccc12` was 2.05.
To `CNC(=O)Oc1ccccc1OC(C)C` belongs 1.52.
To `CC(=O)C(F)(F)F` belongs 0.2.
As to `C1COCCO1`, the logP was -0.27.
In turn, `CCOC(=O)CNC(=O)C=[N+]=[N-]` showed a logP of -0.08.
`NC(=O)Nc1ccccc1F`: the logP is 0.88.
To `CN(C)C(N(C)C)=S(I)c1cc(Cl)cc(Cl)c1` (centres undefined) belongs 0.52; to `CC(=O)NC(Cc1ccc(O)cc1)C(N)=O` (centres undefined), -0.87.
The value for `O=C(O)c1ccccc1Nc1cccc(C(F)(F)F)c1` was 5.25.
For the compound `CC(C)=O`, the logP was -0.24.
Consider `FC(F)Oc1ccccc1`, for which the logP worked out at 2.44.
To `O=C(O)CCC(=O)c1ccc(-c2ccccc2)cc1` belongs 3.2; to `CC(=O)C(=Cc1cccc(Cl)c1)C(C)=O`, 2.26; to `CCCCNc1nc(NC)nc(SC(F)F)n1`, 3.7.
`O=C(C(F)(F)F)C(F)(F)F` showed a logP of 1.46.
The value for `CNCC(=O)O` was -2.78; that for `c1ccc(Sc2ccccc2)cc1` was 4.45; that for `CCN(CC)C(=O)c1ccccc1` was 1.25.
With `Nc1ccc(Cl)cc1C(=O)O`, the log partition coefficient (logP) came to 1.57.
To `Clc1ccc(-c2cc(Cl)c(Cl)c(Cl)c2Cl)c(Cl)c1` belongs 7.44.
`ICCI` gave a logP of 2.71.
For `COC(=O)c1cnc2n(c1=O)C(C(C)C)CCC2` (centres undefined), the logP turned out to be 0.99.
The value for `CC[C@H](C)[C@H](N)C(=O)O` was -1.72; that for `NNC(=O)c1cccc([N+](=O)[O-])c1` was 0.23; that for `CCCC(C)(C)c1ccc(C2CCCC(O)C2)c(O)c1` (centres undefined) was 4.82.
To `CC(C)Nc1nc(NC(C)C)nc(SC(F)F)n1` belongs 4.25; to `O=[N+]([O-])C=Cc1ccoc1`, 1.41; to `Cc1c(Cl)cccc1Nc1ccccc1C(=O)O`, 5.17.
The compound `c1ccc2nc3ccccc3nc2c1` yielded a logP of 2.84.
The value for `Nc1ccc(Cl)cc1` was 1.83.
The value for `CC(C)COC(=O)n1cnc(CC(NC(=O)C2CCC(=O)N2)C(=O)N2CCCC2C(N)=O)c1` (centres undefined) was -0.44; that for `CN(C)C(N(C)C)=S(I)c1ccc(Cl)cc1Cl` (centres undefined) was 0.47; that for `CSCS(=O)CC(CO)NC(=O)C=Cc1c(C)[nH]c(=O)[nH]c1=O` (centres undefined) was -1.71.
Consider `COC(=O)Cc1ccsc1`, for which the logP was found to be 1.46.
`Oc1ccc(Cl)c(Cl)c1` registered a logP of 3.33.
To `C=C(C)c1ccccc1` belongs 3.48; to `CCC(=O)O[C@]1(C(=O)CO)CC[C@H]2[C@@H]3CCC4=CC(=O)CC[C@]4(C)[C@H]3[C@@H](O)C[C@@]21C`, 2.7.
To `Brc1ccccc1Br` belongs 3.64; to `O=C(OCc1ccccc1)n1c(=O)[nH]cc(F)c1=O`, 1.42.
The value for `Cc1ccc(C)o1` was 2.24; that for `CC(C)NC(=O)C=Cc1ccc([N+](=O)[O-])o1` was 1.34.
Turning to `CC(=O)CCC(C)=O`, the logP was -0.27.
The value for `O=S(=O)(CCl)c1ccccc1` was 1.24.
Consider `c1ccc(Oc2ccccn2)cc1`, for which the logP is 2.39.
On to `CCN(CC)C(=O)N(C)N=O`, for which the logP stood at 1.11.
To `O=[N+]([O-])c1ccc(O)c([N+](=O)[O-])c1` belongs 1.67.
Consider `COc1ccco1`, for which the logP was found to be 1.44.
Regarding `NC(=O)c1ccsc1`, the logP came out at 0.5.
The value for `CN(C)CC(CN1c2ccccc2Sc2ccccc21)N(C)C` (centres undefined) was 4.76; that for `CC(=O)OC1(C(=O)CO)CCC2C3CCC4=CC(=O)C=CC4(C)C3C(=O)CC21C` (centres undefined) was 2.43.
The value for `ON=CCCc1ccccc1` was 1.56; that for `CC(=O)OCc1ccc(Cl)cc1` was 2.59.
`CCCC1(CC)C(=O)NC(=O)NC1=O`: the logP came out at 0.66.
To `N#Cc1c[nH]c(=O)[nH]c1=O` belongs -0.93.

The term logP denotes the decadic logarithm of the partition coefficient of the neutral form, usually between octanol and water. Low readings indicate lower lipophilicity, high ones higher lipophilicity.
